# Legend:
# [1] = target: T1, recombinant human TG2 (hTG2) (Homo sapiens, UniProt P21980); test: Inhibition of recombinant Transglutaminase activity (fluorescent substrate), human TG2; type: biochemical; details: recombinant human TG2, Fig 2A
# T1 construct: purchased Zedira
# T1 sequence (P21980 1-687): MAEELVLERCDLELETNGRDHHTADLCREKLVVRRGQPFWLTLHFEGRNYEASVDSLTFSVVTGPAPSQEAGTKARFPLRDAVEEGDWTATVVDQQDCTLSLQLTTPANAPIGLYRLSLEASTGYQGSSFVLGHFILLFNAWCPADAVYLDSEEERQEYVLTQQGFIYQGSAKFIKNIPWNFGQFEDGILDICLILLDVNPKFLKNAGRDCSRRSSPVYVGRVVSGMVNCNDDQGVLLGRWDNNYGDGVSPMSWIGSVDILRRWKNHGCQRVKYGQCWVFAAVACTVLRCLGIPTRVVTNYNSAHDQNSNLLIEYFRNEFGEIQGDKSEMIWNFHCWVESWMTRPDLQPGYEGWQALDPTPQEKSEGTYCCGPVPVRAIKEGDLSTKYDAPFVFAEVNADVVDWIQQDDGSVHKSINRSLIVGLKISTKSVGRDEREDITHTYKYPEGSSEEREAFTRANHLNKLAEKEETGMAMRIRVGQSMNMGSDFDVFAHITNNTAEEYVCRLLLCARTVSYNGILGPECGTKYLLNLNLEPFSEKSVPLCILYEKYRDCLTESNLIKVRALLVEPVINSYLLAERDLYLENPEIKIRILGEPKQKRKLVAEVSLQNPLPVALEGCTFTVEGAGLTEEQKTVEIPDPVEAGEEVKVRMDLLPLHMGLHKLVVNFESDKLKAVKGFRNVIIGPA
# Protocol: (§1) The potency and specificity of TG2 inhibitors was assessed with various recombinant TGs, as previously described. The reaction buffer (50 mM Tris, 100 mM NaCl, 10 mM CaCl2, 5 mM H-Gly-OMe*HCl (glycinemethylestherhydrochloride, Sigma), 5 mM hexadimethinbromide (Sigma), 9.1 mM DTT, pH 7.5) was heated to 37°C in a 96 well plate. Then 50 μM of the TG substrate Abz-NE(CAD-DNP)EQVSPLTLLK-OH (Zedira) was added. 1 μg/ml recombinant TG (human TG1, human (hTG2) / mouse TG2 (mTG2) or human Factor XIII (FXIII); Zedira) were added. The two lyophilized TG2 inhibitors (see Fig 1 for chemical structure) BJJF078 (3,4-Dimethoxy-N-(5-[4-(acryloylamino)piperidine-1-sulfonyl]-naphthalen-1-yl)-benzamide, kindly provided by Dr S. El Alaoui, Covalab, France) and ERW1041E (2-[(3-Bromo-4,5-dihydro-isoxazol-5-ylmethyl)-carbamoyl]-pyrrolidine-1—carboxylic acid quinolin-3-ylmethyl ester, kindly provided by Prof C. Khosla, Stanford University, USA) were dissolved in DMSO (stock solution: 54 mM) and stored at -80°C. These stocks were further diluted and various concentrations of the TG2 inhibitors (0.3 nM to 100 μM), were added to the wells (final DMSO concentration per well: 0.06%). The relative increase in fluorescence emission, correlating with enzymatic activity, was measured over 4 h with a fluorimeter (Excitation: 320nm, emission: 405 nm; Fluostar, GMB).
# [2] = target: T2, human Factor XIII (FXIII) (Homo sapiens, UniProt P00488); test: Inhibition of recombinant Transglutaminase activity (fluorescent substrate), human Factor XIII; type: biochemical; details: Fig 2C, read-out: IC50 to inhibit FXIII activity
# T2 construct: purchased Zedira
# T2 sequence (P00488 1-732): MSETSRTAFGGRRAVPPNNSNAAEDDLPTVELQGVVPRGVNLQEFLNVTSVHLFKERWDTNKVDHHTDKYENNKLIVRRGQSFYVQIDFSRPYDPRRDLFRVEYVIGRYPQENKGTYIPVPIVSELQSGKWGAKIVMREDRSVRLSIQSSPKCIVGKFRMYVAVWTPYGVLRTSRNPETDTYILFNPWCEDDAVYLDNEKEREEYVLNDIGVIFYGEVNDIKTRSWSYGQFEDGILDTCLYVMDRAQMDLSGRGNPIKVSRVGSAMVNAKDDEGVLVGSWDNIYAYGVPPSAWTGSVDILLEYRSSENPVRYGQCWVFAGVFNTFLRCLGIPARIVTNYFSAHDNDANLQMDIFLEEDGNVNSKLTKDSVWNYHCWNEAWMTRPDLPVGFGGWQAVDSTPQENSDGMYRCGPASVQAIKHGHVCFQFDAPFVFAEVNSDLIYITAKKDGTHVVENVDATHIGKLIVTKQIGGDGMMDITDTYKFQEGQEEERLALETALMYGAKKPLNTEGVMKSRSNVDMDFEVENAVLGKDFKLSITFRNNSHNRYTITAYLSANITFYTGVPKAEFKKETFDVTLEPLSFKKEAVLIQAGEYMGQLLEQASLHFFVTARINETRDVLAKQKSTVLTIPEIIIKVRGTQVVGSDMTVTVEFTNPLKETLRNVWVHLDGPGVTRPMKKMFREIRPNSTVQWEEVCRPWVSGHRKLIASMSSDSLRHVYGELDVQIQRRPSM
# Protocol: as §1
# [3] = tested on: inflammatory cells in spinal cord of EAE mice; test: Immunohistochemistry of cell infiltrates (CD45, CD68, CD3) in spinal cord of EAE mice; type: in vivo, mouse; design: key to CD45 (average) / CD68 (average): -: no positive cells; +: few positive cells; ++: intermediate amounts of positive cells; +++: high amounts of cells/ cellular clusters; details: for CD3 range / CD45 (average) / CD45 range / CD68 (average) / CD68 range: spinal cord of EAE mice, semi-quantitative, 3 sections per animal; for relative amount of inflammatory cells (CD45, CD68, CD3) in spinal cord: visual inspection or semi-quantification, versus vehicle
# Protocol: Immunohistochemical staining was performed on cervical, thoracic and lumbar spinal cord sections from EAE mice treated with vehicle, BJJF078 or ERW1041E. The sections were brought back to room temperature and fixed with acetone for 10 min.
# For single immunohistochemical stainings (CD3, CD45, CD68), endogenous peroxidase activity was blocked for 15 min with 0.3% hydrogen peroxide and 0.1% sodium azide in TBS. […] The sections were incubated with primary antibodies (Table 1) at 4°C overnight. After subsequent 2 h incubation with appropriate biotinylated IgGs (1/400, Jackson), the procedure was continued with a 1 h incubation with HRP-labelled avidin-biotin complex (ABC complex 1:400, Vector ABC elite kit, Vector laboratories) and the protocol was followed as described for the in situ TG activity staining above. Semi-quantitative analysis of cellular infiltrates per cell type was performed by unbiased manual evaluation of stained lesion areas per spinal cord section.
smiles,measurement,setting,value
"O=C(NCC1CC(Br)=NO1)C1CCCN1C(=O)OCc1cnc2ccccc2c1 (stereo not shown) [ERW1041E, 2-[(3-Bromo-4,5-dihydro-isoxazol-5-ylmethyl)-carbamoyl]-pyrrolidine-1—carboxylic acid quinolin-3-ylmethyl ester]",IC50,[1],1600 nM
same,IC50,[2],52 µM
same,CD3 range,[3],- to +
same,CD45 (average),[3],++
same,CD45 range,[3],+ to +++
same,CD68 (average),[3],++
same,CD68 range,[3],- to +++
same,"relative amount of inflammatory cells (CD45, CD68, CD3) in spinal cord",[3],not affected
"C=CC(=O)NC1CCN(S(=O)(=O)c2cccc3c(NC(=O)c4ccc(OC)c(OC)c4)cccc23)CC1 [BJJF078, 3,4-Dimethoxy-N-(5-[4-(acryloylamino)piperidine-1-sulfonyl]-naphthalen-1-yl)-benzamide]",IC50,[1],41 nM
same,IC50,[2],22 µM
same,CD3 range,[3],- to +
same,CD45 (average),[3],++
same,CD45 range,[3],+ to +++
same,CD68 (average),[3],++
same,CD68 range,[3],- to +++
same,"relative amount of inflammatory cells (CD45, CD68, CD3) in spinal cord",[3],not affected

# — paper PMC5918173, “Characterization of Transglutaminase 2 activity inhibitors in monocytes in vitro and their effect in a mouse model for multiple sclerosis” (PLoS ONE, 2018)
